Assay [1] addresses T1, Growth hormone secretagogue receptor type 1 (Homo sapiens, UniProt Q92847). The experiment in a line: Displacement of [35S]MK-0677 from human growth hormone secretagogue receptor. On the technique in general: Displacement assays read how much labelled ligand stays bound in the presence of the test substance.
In assay [2] the target is T1, Growth hormone secretagogue receptor type 1. Briefly: Displacement of [125I]ghrelin from human growth hormone secretagogue receptor expressed in CHO-K1 cells. Format: cell-based.
Assay [3] has the same target. Briefly: Displacement of [125I]ghrelin from human growth hormone secretagogue receptor expressed in CHO-K1 cells at >2 uM. The format is cell-based.

Molecules are shown by their SMILES. Where a SMILES comes first, the peptide text is derived from it. [ ]: non-standard residue; d: D form. The star is where a group is joined. Heptanoyl = CCCCCCC(=O)*; Dap = NC[C@H](N)C(=O)O; X1 = O=C(CCCCCF)*

T1 sequence (Q92847 whole entry): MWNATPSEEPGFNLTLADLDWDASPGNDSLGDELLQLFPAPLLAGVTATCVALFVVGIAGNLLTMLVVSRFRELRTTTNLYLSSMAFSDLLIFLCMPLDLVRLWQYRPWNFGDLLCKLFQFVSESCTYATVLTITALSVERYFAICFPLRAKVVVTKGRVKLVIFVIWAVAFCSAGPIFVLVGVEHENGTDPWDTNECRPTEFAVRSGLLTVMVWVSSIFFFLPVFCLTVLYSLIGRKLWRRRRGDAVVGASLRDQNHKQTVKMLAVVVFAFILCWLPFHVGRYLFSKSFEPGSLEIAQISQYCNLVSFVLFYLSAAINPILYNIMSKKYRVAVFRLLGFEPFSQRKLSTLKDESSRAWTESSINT

Take `CCCCCCC(=O)OC[C@H](NC(=O)[C@H](CO)NC(=O)CN)C(=O)N[C@@H](Cc1ccccc1)C(=O)N[C@@H](CC(C)C)C(=O)N[C@@H](CO)C(=O)N1CCC[C@H]1C(=O)N[C@@H](CCC(=O)O)C(=O)N[C@@H](Cc1cnc[nH]1)C(=O)N[C@@H](CCC(N)=O)C(=O)N[C@@H](CCCN=C(N)N)C(=O)N[C@H](C(=O)N[C@@H](CCC(N)=O)C(=O)N[C@@H](CCC(N)=O)C(=O)O)C(C)C`: the IC50 in assay [1] turned out to be 9.6 µM.

`CCCCCCC(=O)OC[C@H](NC(=O)[C@H](CO)NC(=O)CN)C(=O)N[C@@H](Cc1ccccc1)C(N)=O` (H-GSS(Heptanoyl)F-NH2) showed a 50% inhibitory concentration (IC50) in assay [1] of 889 µM.

The compound `CCCCCCC(=O)OC[C@H](NC(=O)[C@H](CO)NC(=O)CN)C(=O)N[C@@H](Cc1ccccc1)C(=O)N[C@@H](CC(C)C)C(N)=O` (H-GSS(Heptanoyl)FL-NH2) yielded an IC50 in assay [1] of 55 µM.

On to `CC(C)C[C@H](NC(=O)[C@H](Cc1ccccc1)NC(=O)[C@H](CNC(=O)CCCCCF)NC(=O)[C@H](CO)NC(=O)CN)C(N)=O` (H-GS[Dap](X1)FL-NH2), for which the IC50 in assay [2] was over 2 µM. The compound further gave an Activity in assay [3] of 20%.

A word on the IC50: it is the concentration at which inhibition is half-maximal. Read a low IC50 as greater potency.

The values are drawn from ChEMBL document CHEMBL1153432 (J Med Chem, 2009).
